Measurements: BigSolDB 2.1

COc1c(NS(=O)(=O)c2ccc(F)cc2)cc(-c2ccc3nccc(N4CCOCC4)c3c2)cc1C(N)=O
solubility (mole fraction)
Settings	288.15 K	293.15 K	298.15 K	303.15 K	308.15 K	313.15 K	318.15 K	323.15 K	328.15 K
in acetone	0.000608	0.000638	0.000704	0.000817	0.000941	0.00102	0.00115	–	–
in chloroform	5.21e-05	5.44e-05	5.86e-05	6.66e-05	7.72e-05	9.58e-05	0.000121	0.000149	0.000188
in ethyl acetate	9.85e-05	0.000115	0.000127	0.000138	0.00016	0.000182	0.000187	0.000183	0.000183
in methanol	0.000259	0.000298	0.000338	0.000398	0.000473	0.000518	0.000666	0.000829	0.000977
in toluene	5.82e-06	6.02e-06	6.59e-06	7.29e-06	7.86e-06	9.04e-06	1.03e-05	1.23e-05	1.4e-05
in water	3.54e-07	5.68e-07	7.36e-07	8.18e-07	9.22e-07	1.08e-06	1.28e-06	1.47e-06	1.75e-06

COc1c(NS(=O)(=O)c2ccc(F)cc2)cc(-c2ccc3ncnc(N4CCOCC4)c3c2)cc1C(N)=O
solubility (mole fraction)
Settings	288.15 K	293.15 K	298.15 K	303.15 K	308.15 K	313.15 K	318.15 K	323.15 K	328.15 K
in acetone	0.000317	0.000317	0.000352	0.000419	0.000459	0.000526	0.000592	–	–
in chloroform	0.000145	0.000158	0.000165	0.000188	0.000223	0.000258	0.000303	0.00039	0.000495
in ethyl acetate	9.51e-05	0.000101	0.000114	0.000128	0.00015	0.000171	0.000196	0.00022	0.000239
in methanol	0.000238	0.000301	0.00043	0.000428	0.000613	0.00078	0.00102	0.00105	0.00125
in toluene	1.05e-05	1.05e-05	1.05e-05	1.13e-05	1.31e-05	1.53e-05	1.67e-05	1.83e-05	2.14e-05
in water	5.21e-07	8.05e-07	9.14e-07	1.05e-06	1.16e-06	1.37e-06	1.5e-06	1.98e-06	2.44e-06

COc1c(NS(=O)(=O)c2ccc(C)cc2)cc(-c2ccc3ncnc(N4CCOCC4)c3c2)cc1C(N)=O
solubility (mole fraction)
Settings	288.15 K	293.15 K	298.15 K	303.15 K	308.15 K	313.15 K	318.15 K	323.15 K	328.15 K
in acetone	0.000635	0.000707	0.000798	0.001	0.00115	0.00141	0.00185	–	–
in chloroform	0.0027	0.00314	0.00346	0.00398	0.00466	0.00547	0.00637	0.00717	0.00767
in ethyl acetate	0.000286	0.000294	0.000302	0.000329	0.000357	0.000412	0.00045	0.000535	0.000656
in methanol	0.000832	0.000873	0.000919	0.00105	0.00123	0.00151	0.00183	0.00217	0.00267
in toluene	2.41e-05	2.9e-05	3.32e-05	3.98e-05	4.9e-05	5.89e-05	7.91e-05	0.000104	0.00013
in water	8.31e-07	1.19e-06	1.62e-06	2.07e-06	2.53e-06	2.91e-06	3.2e-06	3.47e-06	3.75e-06
